Data from the kinase profiling compilation of Christmann-Franck et al. (2016).

Columns and labels:
Test in all cases: KINOMEscan competition binding
STK16 (human) = STK16 (human) (UniProt O75716)
CDK4 CCND3 (human) = CDK4 CCND3 (human) (UniProt P11802+P30281); details: compound 1.0 µM
MAP2K5 (human) = MAP2K5 (human) (UniProt Q13163)
PKN3 (M.tuberculosis) = PKN3 (M.tuberculosis) (UniProt Q6P5Z2); details: compound 1.0 µM
RET (human) = RET (human) (UniProt P07949)
CPK1 (P.falciparum) = details: compound 1.0 µM
PDGFRB (human) = PDGFRB (human) (UniProt P09619)
RPS6KA6 KD2 (human) = RPS6KA6 KD2 (human) (UniProt Q9UK32)
[1] = tested on: FLT3 (human), P36888 [ITD]; details: compound 1.0 µM
RIPK2 (human) = RIPK2 (human) (UniProt O43353)
MAP3K1 (human) = MAP3K1 (human) (UniProt Q13233)
CDK4 CCND1 (human) = CDK4 CCND1 (human) (UniProt P11802+P24385); details: compound 1.0 µM
Sequence of CDK4 CCND1 (human) (P11802 whole entry, looked up): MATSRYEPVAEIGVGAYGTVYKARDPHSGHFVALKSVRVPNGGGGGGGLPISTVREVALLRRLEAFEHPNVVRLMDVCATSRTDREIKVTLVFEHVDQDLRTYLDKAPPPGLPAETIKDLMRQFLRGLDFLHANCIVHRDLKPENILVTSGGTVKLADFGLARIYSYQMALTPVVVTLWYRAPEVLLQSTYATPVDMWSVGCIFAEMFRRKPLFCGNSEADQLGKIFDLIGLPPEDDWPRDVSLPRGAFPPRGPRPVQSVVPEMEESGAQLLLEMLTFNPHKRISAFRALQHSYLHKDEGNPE
Sequence of CDK4 CCND1 (human) (P24385 whole entry, looked up): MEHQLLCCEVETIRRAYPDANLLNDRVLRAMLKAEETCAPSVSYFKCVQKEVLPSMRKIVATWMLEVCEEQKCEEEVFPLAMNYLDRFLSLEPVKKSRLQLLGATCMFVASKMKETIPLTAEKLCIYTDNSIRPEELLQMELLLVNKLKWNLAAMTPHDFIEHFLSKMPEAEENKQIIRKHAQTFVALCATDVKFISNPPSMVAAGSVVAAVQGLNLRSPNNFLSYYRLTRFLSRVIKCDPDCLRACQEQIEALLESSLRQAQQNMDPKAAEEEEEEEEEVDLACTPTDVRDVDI

Sequence of CDK4 CCND3 (human) (P11802 whole entry, looked up): as the sequence (P11802 whole entry, looked up) above
Sequence of CDK4 CCND3 (human) (P30281 whole entry, looked up): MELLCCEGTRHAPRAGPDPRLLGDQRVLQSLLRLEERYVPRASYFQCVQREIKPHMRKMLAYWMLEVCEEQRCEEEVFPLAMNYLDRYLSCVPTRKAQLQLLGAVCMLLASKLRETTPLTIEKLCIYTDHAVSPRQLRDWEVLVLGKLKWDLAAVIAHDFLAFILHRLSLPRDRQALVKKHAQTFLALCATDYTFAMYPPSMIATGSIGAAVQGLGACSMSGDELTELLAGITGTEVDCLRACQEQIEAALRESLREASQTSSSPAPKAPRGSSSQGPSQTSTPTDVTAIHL
Sequence of RIPK2 (human) (O43353 whole entry, looked up): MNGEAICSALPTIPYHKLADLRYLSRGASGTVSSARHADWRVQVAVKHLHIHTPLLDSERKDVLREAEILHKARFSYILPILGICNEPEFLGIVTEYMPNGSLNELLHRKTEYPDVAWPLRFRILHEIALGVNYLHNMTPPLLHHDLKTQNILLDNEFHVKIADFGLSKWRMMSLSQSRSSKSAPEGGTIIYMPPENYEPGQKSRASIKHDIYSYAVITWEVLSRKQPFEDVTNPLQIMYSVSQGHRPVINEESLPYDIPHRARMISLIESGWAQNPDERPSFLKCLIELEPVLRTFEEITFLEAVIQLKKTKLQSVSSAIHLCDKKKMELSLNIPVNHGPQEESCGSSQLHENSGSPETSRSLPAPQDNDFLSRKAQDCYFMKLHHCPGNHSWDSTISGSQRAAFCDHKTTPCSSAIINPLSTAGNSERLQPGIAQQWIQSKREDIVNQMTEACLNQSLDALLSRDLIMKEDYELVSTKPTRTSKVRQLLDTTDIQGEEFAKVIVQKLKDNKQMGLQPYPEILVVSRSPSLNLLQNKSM
Sequence of STK16 (human) (O75716 whole entry, looked up): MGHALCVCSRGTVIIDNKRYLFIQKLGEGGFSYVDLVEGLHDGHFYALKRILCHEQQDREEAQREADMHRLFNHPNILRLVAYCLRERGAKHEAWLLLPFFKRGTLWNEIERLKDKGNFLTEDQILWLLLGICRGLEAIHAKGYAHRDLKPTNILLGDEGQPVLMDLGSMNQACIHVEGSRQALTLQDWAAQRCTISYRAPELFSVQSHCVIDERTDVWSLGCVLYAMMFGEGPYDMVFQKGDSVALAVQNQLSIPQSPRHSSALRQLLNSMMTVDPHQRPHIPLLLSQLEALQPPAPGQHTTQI
Sequence of FLT3 (human), P36888 [ITD] (P36888 whole entry, looked up, change not shown): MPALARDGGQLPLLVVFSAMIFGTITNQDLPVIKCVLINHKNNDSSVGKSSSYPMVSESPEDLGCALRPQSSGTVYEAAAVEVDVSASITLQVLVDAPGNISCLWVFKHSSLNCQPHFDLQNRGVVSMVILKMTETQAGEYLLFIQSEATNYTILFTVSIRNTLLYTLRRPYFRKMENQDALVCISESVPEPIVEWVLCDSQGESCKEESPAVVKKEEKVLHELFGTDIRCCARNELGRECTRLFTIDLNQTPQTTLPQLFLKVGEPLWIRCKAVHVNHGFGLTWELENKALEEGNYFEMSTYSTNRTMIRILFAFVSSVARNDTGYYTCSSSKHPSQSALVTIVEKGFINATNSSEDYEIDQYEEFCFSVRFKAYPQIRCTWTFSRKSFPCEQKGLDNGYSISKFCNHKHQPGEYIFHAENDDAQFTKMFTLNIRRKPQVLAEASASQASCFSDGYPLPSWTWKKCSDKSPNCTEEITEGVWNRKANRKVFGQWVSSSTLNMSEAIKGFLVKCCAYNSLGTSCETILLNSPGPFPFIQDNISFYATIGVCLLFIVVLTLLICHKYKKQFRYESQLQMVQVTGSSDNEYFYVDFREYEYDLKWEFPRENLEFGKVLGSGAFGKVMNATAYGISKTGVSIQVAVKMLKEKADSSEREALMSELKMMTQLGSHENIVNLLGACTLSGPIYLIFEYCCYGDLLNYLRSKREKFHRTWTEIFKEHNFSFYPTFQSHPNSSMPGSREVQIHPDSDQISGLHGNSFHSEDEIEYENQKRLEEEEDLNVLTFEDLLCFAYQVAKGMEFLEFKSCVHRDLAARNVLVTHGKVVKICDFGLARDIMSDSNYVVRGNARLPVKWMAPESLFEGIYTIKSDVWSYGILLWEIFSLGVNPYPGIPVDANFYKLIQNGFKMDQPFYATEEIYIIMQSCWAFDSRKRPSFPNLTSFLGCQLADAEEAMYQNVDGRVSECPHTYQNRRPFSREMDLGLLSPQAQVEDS
Sequence of MAP3K1 (human) (Q13233 whole entry, looked up): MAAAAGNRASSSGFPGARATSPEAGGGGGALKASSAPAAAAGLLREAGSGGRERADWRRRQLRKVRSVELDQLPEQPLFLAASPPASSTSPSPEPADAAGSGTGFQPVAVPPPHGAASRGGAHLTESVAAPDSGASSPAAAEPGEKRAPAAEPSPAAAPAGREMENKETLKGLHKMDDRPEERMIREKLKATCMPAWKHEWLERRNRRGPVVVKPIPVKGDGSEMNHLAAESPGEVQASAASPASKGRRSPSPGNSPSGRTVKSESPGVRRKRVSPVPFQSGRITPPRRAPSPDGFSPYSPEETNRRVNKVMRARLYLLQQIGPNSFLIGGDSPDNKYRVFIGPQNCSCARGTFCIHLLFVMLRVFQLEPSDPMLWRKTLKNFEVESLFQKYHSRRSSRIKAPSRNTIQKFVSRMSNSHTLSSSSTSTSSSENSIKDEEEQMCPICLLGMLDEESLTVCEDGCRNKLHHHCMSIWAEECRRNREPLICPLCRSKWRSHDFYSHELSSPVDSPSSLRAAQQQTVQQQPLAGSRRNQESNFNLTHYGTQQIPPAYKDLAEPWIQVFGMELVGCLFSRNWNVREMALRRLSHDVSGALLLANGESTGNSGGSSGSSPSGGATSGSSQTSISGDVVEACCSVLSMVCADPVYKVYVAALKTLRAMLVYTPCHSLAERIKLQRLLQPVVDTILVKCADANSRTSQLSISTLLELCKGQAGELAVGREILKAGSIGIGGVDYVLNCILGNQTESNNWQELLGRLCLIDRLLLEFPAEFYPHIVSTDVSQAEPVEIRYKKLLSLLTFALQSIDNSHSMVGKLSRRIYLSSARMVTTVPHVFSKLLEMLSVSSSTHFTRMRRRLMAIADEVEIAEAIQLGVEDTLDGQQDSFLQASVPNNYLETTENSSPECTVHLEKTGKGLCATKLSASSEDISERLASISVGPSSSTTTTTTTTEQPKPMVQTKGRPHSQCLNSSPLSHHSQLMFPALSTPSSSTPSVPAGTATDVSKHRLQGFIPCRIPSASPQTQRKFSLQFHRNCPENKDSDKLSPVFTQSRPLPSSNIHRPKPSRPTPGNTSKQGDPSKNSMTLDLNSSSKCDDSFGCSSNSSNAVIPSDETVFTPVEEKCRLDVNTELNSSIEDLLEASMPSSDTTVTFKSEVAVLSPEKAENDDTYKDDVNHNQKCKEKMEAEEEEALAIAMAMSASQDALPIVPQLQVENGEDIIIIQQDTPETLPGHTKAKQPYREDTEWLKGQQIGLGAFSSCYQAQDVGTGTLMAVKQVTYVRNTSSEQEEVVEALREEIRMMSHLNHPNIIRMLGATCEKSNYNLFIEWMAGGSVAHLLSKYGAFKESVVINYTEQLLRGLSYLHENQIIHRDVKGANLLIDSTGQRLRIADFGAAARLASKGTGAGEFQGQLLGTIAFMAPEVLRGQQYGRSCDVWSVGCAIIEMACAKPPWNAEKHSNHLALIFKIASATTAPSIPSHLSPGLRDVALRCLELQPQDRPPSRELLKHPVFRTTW
Sequence of MAP2K5 (human) (Q13163 whole entry, looked up): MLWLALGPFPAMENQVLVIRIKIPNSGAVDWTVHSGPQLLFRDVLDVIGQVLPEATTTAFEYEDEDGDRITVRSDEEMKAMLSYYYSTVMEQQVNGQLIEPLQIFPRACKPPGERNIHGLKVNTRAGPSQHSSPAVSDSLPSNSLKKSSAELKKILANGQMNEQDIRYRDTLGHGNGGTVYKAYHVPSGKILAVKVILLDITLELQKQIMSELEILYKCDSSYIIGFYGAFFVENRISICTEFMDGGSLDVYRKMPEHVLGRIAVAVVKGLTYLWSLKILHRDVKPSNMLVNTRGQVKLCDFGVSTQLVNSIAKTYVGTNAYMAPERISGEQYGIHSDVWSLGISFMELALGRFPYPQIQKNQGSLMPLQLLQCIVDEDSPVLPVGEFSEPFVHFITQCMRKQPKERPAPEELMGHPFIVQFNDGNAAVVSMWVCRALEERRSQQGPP

Structure (SMILES): Cc1ccc(-c2c(/C=C(\C#N)C(=O)NC(C)C)n(CCCO)c3ncnc(N)c23)cc1
- Kd (STK16 (human)): 230 nM
- residual activity (CDK4 CCND3 (human)): 95%
- Kd (MAP2K5 (human)): 2300 nM
- kinase still bound, per cent of control (PKN3 (M.tuberculosis)): 100%
- Kd (RET (human)): 360 nM
- kinase still bound, per cent of control (CPK1 (P.falciparum)): 68%
- Kd (PDGFRB (human)): 2800 nM
- Kd (RPS6KA6 KD2 (human)): 1.2 nM
- kinase still bound, per cent of control [1]: 75%
- Kd (RIPK2 (human)): 310 nM
- Kd (MAP3K1 (human)): 45 nM
- residual activity (CDK4 CCND1 (human)): 100%
